Assay results as given in ChEMBL document CHEMBL1129820, “1,4-Bis-(2,3-epoxypropylamino)-9,10-anthracenedione and related compounds as potent antifungal and antimicrobial agents” (Bioorg Med Chem Lett, 1997).
Values after ≈ are worked out from the molar mass of the structure shown. Values belong to the molecule of their own block, whether it stands above or below them.

How the values were obtained:
[1] = tested on: Dolichospermum flos-aquae; experiment: The compound was evaluated for antialgal activity against Anabaena flos-aquae; type: functional
[2] = tested on: Auxenochlorella pyrenoidosa; experiment: The compound was evaluated for antialgal activity against Chlorella pyrenoidosa; type: functional
Pseudomonas fluorescens [3] = experiment: The compound was evaluated for antibacterial activity against the Pseudomonas fluorescence at pH 7.0; type: functional
Aspergillus niger [4] = experiment: The compound was evaluated for antifungal activity against Aspergillus niger at pH 7.5; type: functional
Escherichia coli = experiment: The compound was evaluated for antibacterial activity against Escherichia coli at pH 7.0; type: functional
Globisporangium ultimum = experiment: The compound was evaluated for antifungal activity against the fungi Pythium ultimum; type: functional, organism-based
Pseudomonas aeruginosa = experiment: The compound was evaluated for antibacterial activity against Pseudomonas aeruginosa at pH 7.0; type: functional
Staphylococcus aureus [5] = experiment: The compound was evaluated for antibacterial activity against Staphylococcus aureus at pH 7.0; type: functional
Aureobasidium pullulans [6] = experiment: The compound was evaluated for antifungal activity against Aureobasidium pullulans at pH 7.5; type: functional
Aureobasidium pullulans [7] = experiment: The compound was evaluated for antifungal activity against Aureobasidium pullulans at pH 7.5 (end point 25 p.p.m. in separate test); type: functional
Aspergillus niger [8] = experiment: The compound was evaluated for antifungal activity against Aspergillus niger at pH 7.5 (end point 0.25 p.p.m. in separate test); type: functional
Amorphotheca resinae [9] = experiment: The compound was evaluated for antifungal activity against Cladosporium resinae at pH 7.5 (end point <0.25 p.p.m. in separate test); type: functional
Chaetomium globosum [10] = experiment: The compound was evaluated for antifungal activity against Chaetomium globosum at pH 7.5 (end point <0.25 p.p.m. in separate test); type: functional
Talaromyces funiculosus = experiment: The compound was evaluated for antifungal activity against Penicillium funiculosum at pH 7.5 (end point 2.5 p.p.m. in separate test); type: functional
Phytophthora capsici = experiment: The compound was evaluated for antifungal activity against the fungi Phytophthora capsici; type: functional
Pseudomonas fluorescens [11] = experiment: The compound was evaluated for antibacterial activity against Pseudomonas fluorescence at pH 4.0 in trypticase soy broth medium; type: functional
Pseudomonas fluorescens [12] = experiment: The compound was evaluated for antibacterial activity against Pseudomonas fluorescence at pH 5.5; type: functional
Pseudomonas fluorescens [13] = experiment: The compound was evaluated for antibacterial activity against Pseudomonas fluorescence at pH 7.0; type: functional
Pseudomonas fluorescens [14] = experiment: The compound was evaluated for antibacterial activity against Pseudomonas fluorescence at pH 7.0 in trypticase soy broth medium; type: functional
Pseudomonas fluorescens [15] = experiment: The compound was evaluated for antibacterial activity against Pseudomonas fluorescence at pH 8.0; type: functional
Pseudomonas fluorescens [16] = experiment: The compound was evaluated for antibacterial activity against Pseudomonas fluorescence at pH 9.0; type: functional
Pseudomonas fluorescens [17] = experiment: The compound was evaluated for antibacterial activity against Pseudomonas fluorescence at pH 9.0 in trypticase soy broth medium; type: functional
Pseudomonas fluorescens [18] = experiment: The compound was evaluated for antifungal activity against Pseudomonas fluorescence in separate test(endopoint 0.25 p.p.m.) at pH 7.0; type: functional
Staphylococcus aureus [19] = experiment: The compound was evaluated for antifungal activity against Staphylococcus aureus in separate test(endopoint 0.25 p.p.m.) at pH 7.0; type: functional
Aureobasidium pullulans [20] = experiment: The compound was evaluated for antifungal activity against Aureobasidium pullulans at pH 7.5 (end point <0.25 p.p.m. in separate test); type: functional
Amorphotheca resinae [21] = experiment: The compound was evaluated for antifungal activity against Cladosporium resinae at pH 7.5 (end point 2.5 p.p.m. in separate test); type: functional
Pseudomonas fluorescens [22] = experiment: The compound was evaluated for antibacterial activity against Pseudomonas fluorescence at pH 4.0; type: functional
Chaetomium globosum [23] = experiment: The compound was evaluated for antifungal activity against Chaetomium globosum at pH 7.5 (end point 2.5 p.p.m. in separate test); type: functional

MIC (Aspergillus niger [4]): > 250 µg/mL | MIC (Escherichia coli): > 250 µg/mL | EC50 (Globisporangium ultimum): 3.6 p.p.m. | MIC (Pseudomonas aeruginosa): > 250 µg/mL | MIC (Pseudomonas fluorescens [3]): 4 µg/mL (≈ 11.4 µM) | MIC (Staphylococcus aureus [5]): > 250 µg/mL | MIC (Aureobasidium pullulans [6]): > 250 µg/mL
Structure (SMILES): O=C1c2ccccc2C(=O)c2c(OCC3CO3)ccc(OCC3CO3)c21 (stereo not given)

MIC (Pseudomonas fluorescens [12]): 100 µg/mL (≈ 195 µM) | MIC (Pseudomonas fluorescens [13]): 50 µg/mL (≈ 97.6 µM) | MIC (Pseudomonas fluorescens [15]): 0.4 µg/mL (≈ 0.781 µM) | MIC (Pseudomonas fluorescens [16]): 0.2 µg/mL (≈ 0.39 µM)
Structure (SMILES): O=C1c2ccccc2C(=O)c2c(NCC(Br)CO)ccc(NCC(Br)CO)c21 (stereo not given)

MIC (Pseudomonas fluorescens [12]): > 100 µg/mL | MIC (Pseudomonas fluorescens [13]): 25 µg/mL (≈ 59.1 µM) | MIC (Pseudomonas fluorescens [15]): 50 µg/mL (≈ 118 µM) | MIC (Pseudomonas fluorescens [16]): 50 µg/mL (≈ 118 µM)
Structure (SMILES): O=C1c2ccccc2C(=O)c2c(NCC(Cl)CO)ccc(NCC(Cl)CO)c21 (stereo not given)

Continued, molecule first:

Structure (SMILES): Cn1sc(Cl)cc1=O.Cn1sccc1=O
MIC [1]: 0.1 µg/mL | MIC [2]: 0.3 µg/mL

Structure (SMILES): CCCCCCCCn1sc(Cl)c(Cl)c1=O
MIC (Pseudomonas fluorescens [3]): < 0.2 µg/mL

Structure (SMILES): O=C1c2ccccc2C(=O)c2c(NCC3CO3)ccc(NCC3CO3)c21 (stereo not given)
MIC (Aureobasidium pullulans [7]): 0.8 µg/mL (≈ 2.28 µM) | MIC [1]: < 2 µg/mL | MIC (Aspergillus niger [8]): 0.4 µg/mL (≈ 1.14 µM) | MIC [2]: < 2 µg/mL | MIC (Amorphotheca resinae [9]): 0.4 µg/mL (≈ 1.14 µM) | MIC (Chaetomium globosum [10]): 0.4 µg/mL (≈ 1.14 µM) | MIC (Escherichia coli): 250 µg/mL (≈ 714 µM) | MIC (Talaromyces funiculosus): 0.8 µg/mL (≈ 2.28 µM) | MIC (Phytophthora capsici): 0.2 µg/mL (≈ 0.571 µM) | EC50 (Globisporangium ultimum): 0.03 p.p.m. | MIC (Pseudomonas aeruginosa): 63 µg/mL (≈ 180 µM) | MIC (Pseudomonas fluorescens [11]): 0.2 µg/mL (≈ 0.571 µM) | MIC (Pseudomonas fluorescens [12]): 0.025 µg/mL (≈ 0.0714 µM) | MIC (Pseudomonas fluorescens [13]): 0.05 µg/mL (≈ 0.143 µM) | MIC (Pseudomonas fluorescens [14]): 0.2 µg/mL (≈ 0.571 µM) | MIC (Pseudomonas fluorescens [15]): 0.05 µg/mL (≈ 0.143 µM) | MIC (Pseudomonas fluorescens [16]): 0.05 µg/mL (≈ 0.143 µM) | MIC (Pseudomonas fluorescens [17]): 0.2 µg/mL (≈ 0.571 µM) | MIC (Pseudomonas fluorescens [3]): < 0.13 µg/mL | MIC (Pseudomonas fluorescens [18]): 0.2 µg/mL (≈ 0.571 µM) | MIC (Staphylococcus aureus [5]): < 0.13 µg/mL | MIC (Staphylococcus aureus [19]): 0.2 µg/mL (≈ 0.571 µM)

Structure (SMILES): CCCCNC(=O)OC#CCI
MIC (Aureobasidium pullulans [20]): 0.1 µg/mL (≈ 0.356 µM) | MIC (Aspergillus niger [8]): 1.6 µg/mL (≈ 5.69 µM) | MIC (Amorphotheca resinae [21]): 25 µg/mL (≈ 88.9 µM) | MIC (Talaromyces funiculosus): 0.8 µg/mL (≈ 2.85 µM) | MIC (Pseudomonas fluorescens [22]): 50 µg/mL (≈ 178 µM) | MIC (Pseudomonas fluorescens [13]): 0.2 µg/mL (≈ 0.712 µM) | MIC (Pseudomonas fluorescens [16]): 50 µg/mL (≈ 178 µM) | MIC (Chaetomium globosum [23]): 1.6 µg/mL (≈ 5.69 µM)

Structure (SMILES): COCC(=O)N(c1c(C)cccc1C)C(C)C(=O)OC (stereo not given) [METALAXYL]
MIC (Phytophthora capsici): 0.4 µg/mL (≈ 1.43 µM) | EC50 (Globisporangium ultimum): 0.017 p.p.m.
